The values below come from patent US11932628B2, “Selective small molecule peptidomimetic melanocortin ligands” (REGENTS OF THE UNIVERSITY OF MINNESOTA, priority 2021, dated 2024).

For assay [1], the target named is mMC1R (Mus musculus, UniProt Q01727). Description: cAMP based functional bioassay (CRE/β-galactosidase reporter), agonist activity at mMC1R.
Experimental: (§1) The compounds were evaluated using a whole cell assay.
(§2) Compounds were dissolved in DMSO at a stock concentration of 10^−2 M and stored at −20° C. until assayed. HEK-293 cells stably expressing the selected melanocortin receptors were transiently transfected with 4 μg of CRE/β-galactosidase reporter gene. Briefly, 5000-15000 post transfection cells were plated into collagen treated 96-well plates (Nunc) and incubated overnight. […] The assay media was aspirated, and 50 μL of lysis buffer (250 mM Tris-HCl pH=8.0 and 0.1% Triton X-100) was added. The plates were stored at −80° C. overnight. The plates containing the cell lysates were thawed the following day. Aliquots of 10 μL were taken from each well and transferred to another 96-well plate for relative protein determination. To the cell lysate plates, 40 μL of phosphate-buffered saline with 0.5% BSA was added to each well. Subsequently, 150 μL of substrate buffer (60 mM sodium phosphate, 1 mM MgCl2, 10 mM KCl, 5 mM β-mercaptoethanol, 2 mg/mL ONPG) was added to each well and the plates were incubated at 37° C. The sample absorbance, OD405, was measured using a 96-well plate reader (Molecular Devices). The relative protein was determined by adding 200 μL of 1:5 dilution BioRad G250 protein dye:water to the 10 μL of cell lysate sample taken previously, and the OD595 was measured on a 96-well plate reader (Molecular Devices). Data points were normalized to forskolin and the relative protein content were used as positive controls. The EC50 values represent the mean of three or more independent experiments. The EC50 estimates, and their associated standard errors of the mean, were determined by fitting the data to a nonlinear least-squares analysis using the PRISM program (v4.0, GraphPad Inc.).
(§3) The results are tabulated in the form of EC50 values. In the case where the particular receptor was not activated to full activity at 100,000 nM, then the relative activity was reported.
Assay [2] has as its target T1, mMC4R (Mus musculus, UniProt P56450). The experiment in a line: Schild analysis of antagonist activity at mMC4R.
Experimental: The antagonist activity may also be reported as a Ki value, which is the inverse Log of pA2. […] Compounds were dissolved in DMSO at a stock concentration of 10^−2 M and stored at −20° C. until assayed. HEK-293 cells stably expressing the selected melanocortin receptors were transiently transfected with 4 μg of CRE/β-galactosidase reporter gene. Briefly, 5000-15000 post transfection cells were plated into collagen treated 96-well plates (Nunc) and incubated overnight. […] The assay media was aspirated, and 50 μL of lysis buffer (250 mM Tris-HCl pH=8.0 and 0.1% Triton X-100) was added. The plates were stored at −80° C. overnight. The plates containing the cell lysates were thawed the following day. Aliquots of 10 μL were taken from each well and transferred to another 96-well plate for relative protein determination. To the cell lysate plates, 40 μL of phosphate-buffered saline with 0.5% BSA was added to each well. Subsequently, 150 μL of substrate buffer (60 mM sodium phosphate, 1 mM MgCl2, 10 mM KCl, 5 mM β-mercaptoethanol, 2 mg/mL ONPG) was added to each well and the plates were incubated at 37° C. The sample absorbance, OD405, was measured using a 96-well plate reader (Molecular Devices). The relative protein was determined by adding 200 μL of 1:5 dilution BioRad G250 protein dye:water to the 10 μL of cell lysate sample taken previously, and the OD595 was measured on a 96-well plate reader (Molecular Devices). Data points were normalized to forskolin and the relative protein content were used as positive controls. The EC50 values represent the mean of three or more independent experiments. The EC50 estimates, and their associated standard errors of the mean, were determined by fitting the data to a nonlinear least-squares analysis using the PRISM program (v4.0, GraphPad Inc.).
The reported values are on a log scale. In order to put them into perspective, their approximate binding disassociation constants, Ki values, can be calculated through the following relationship pA2=−Log10 (Ki).
The target in assay [3] is mMC3R (Mus musculus, UniProt P33033). The experiment in a line: cAMP based functional bioassay (CRE/β-galactosidase reporter), agonist activity at mMC3R.
Sequence of mMC3R (P33033 whole entry): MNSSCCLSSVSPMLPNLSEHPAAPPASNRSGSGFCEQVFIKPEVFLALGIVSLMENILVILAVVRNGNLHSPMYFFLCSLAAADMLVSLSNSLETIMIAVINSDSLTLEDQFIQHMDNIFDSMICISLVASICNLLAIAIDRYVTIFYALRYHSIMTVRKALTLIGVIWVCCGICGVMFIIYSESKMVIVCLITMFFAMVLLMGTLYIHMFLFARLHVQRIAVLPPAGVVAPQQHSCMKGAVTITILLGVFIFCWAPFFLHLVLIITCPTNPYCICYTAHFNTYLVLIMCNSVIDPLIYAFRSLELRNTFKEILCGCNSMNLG
For assay [4], the target named is mMC5R (Mus musculus, UniProt P41149). Description: cAMP based functional bioassay (CRE/β-galactosidase reporter), agonist activity at mMC5R.
Sequence of mMC5R (P41149 whole entry): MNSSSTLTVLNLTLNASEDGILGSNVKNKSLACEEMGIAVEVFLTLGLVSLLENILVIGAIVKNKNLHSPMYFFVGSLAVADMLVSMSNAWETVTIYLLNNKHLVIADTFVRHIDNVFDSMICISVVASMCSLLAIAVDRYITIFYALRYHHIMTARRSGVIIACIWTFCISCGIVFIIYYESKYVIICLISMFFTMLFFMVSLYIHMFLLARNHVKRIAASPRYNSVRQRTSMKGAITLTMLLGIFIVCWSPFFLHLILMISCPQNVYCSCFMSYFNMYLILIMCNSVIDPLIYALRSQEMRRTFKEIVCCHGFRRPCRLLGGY
Experimental: as §1, §2, §3
Assay [5] concerns the target T1, mMC4R. Description: cAMP based functional bioassay (CRE/β-galactosidase reporter), agonist activity at mMC4R. The note with it: reported where receptor not activated to full activity.
Experimental: as §1, §2, §3
Setting [6] is: reported where receptor not activated to full activity.

The term EC50 denotes the concentration giving half of the maximal effect. Higher therefore signals a less potent agent. For orientation: Kb means the affinity of an antagonist, worked out from how it opposes an agonist.

Sequence of mMC1R (Q01727 whole entry): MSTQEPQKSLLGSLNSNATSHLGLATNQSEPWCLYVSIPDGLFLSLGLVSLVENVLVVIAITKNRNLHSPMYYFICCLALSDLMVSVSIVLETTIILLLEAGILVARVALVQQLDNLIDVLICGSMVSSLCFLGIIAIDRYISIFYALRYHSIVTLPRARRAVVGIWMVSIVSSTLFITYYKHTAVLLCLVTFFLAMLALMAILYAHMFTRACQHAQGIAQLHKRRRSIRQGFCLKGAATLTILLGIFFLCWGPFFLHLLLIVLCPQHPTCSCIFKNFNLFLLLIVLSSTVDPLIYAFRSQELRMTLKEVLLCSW
T1 sequence (P56450 whole entry): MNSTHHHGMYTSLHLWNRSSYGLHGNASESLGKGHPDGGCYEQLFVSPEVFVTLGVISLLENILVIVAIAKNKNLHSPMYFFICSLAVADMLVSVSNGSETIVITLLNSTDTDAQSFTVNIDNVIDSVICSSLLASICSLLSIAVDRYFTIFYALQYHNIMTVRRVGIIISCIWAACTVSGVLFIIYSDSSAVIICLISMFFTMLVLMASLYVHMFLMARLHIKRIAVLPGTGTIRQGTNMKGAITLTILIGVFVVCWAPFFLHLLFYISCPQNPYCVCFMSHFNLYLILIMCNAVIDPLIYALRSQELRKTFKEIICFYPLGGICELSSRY

Regarding `CC(C)C[C@@H]1CNC(=N)N1C[C@@H]1CCCN1C[C@@H](CC1CCCCC1)N1C[C@@H]([C@@H](C)O)N(CC2CCC(C(C)(C)C)CC2)C1=N` (stereo partly drawn) [TPI 2509-5, (R)-1-((S)-3-((4-(tert-butyl)cyclohexyl)methyl)-1-((R)-1-cyclohexyl-3-((S)-2-(((R)-2-imino-5-isobutylimidazolidin-1-yl)methyl)pyrrolidin-1-yl)propan-2-yl)-2-iminoimidazolidin-4-yl)ethanol], the EC50 in assay [1] was found to be 300 ± 90 nM; in assay [3], 210 ± 50 nM; in assay [4], 140 ± 70 nM. Moreover, in assay [2], the Kb came to 1580 nM. The “mMC4R Activity @ 10 μM (relative activity, percent)” value in assay [5] is reported as 45%.

Turning to `CC(C)C[C@@H]1CNC(=N)N1C[C@@H]1CCCN1C[C@@H](CC1CCCCC1)N1C[C@@H]([C@@H](C)O)N(CC23CC4CC(CC(C4)C2)C3)C1=N` [TPI 2509-4, (R)-1-((S)-3-(adamantan-1-ylmethyl)-1-((R)-1-cyclohexyl-3-((S)-2-(((R)-2-imino-5-isobutylimidazolidin-1-yl)methyl)pyrrolidin-1-yl)propan-2-yl)-2-iminoimidazolidin-4-yl)ethanol], the EC50 in assay [1] came out at 330 ± 110 nM; in assay [3], 240 ± 40 nM; in assay [4], 340 ± 140 nM. This molecule returned an antagonist dissociation constant (Kb) in assay [2] of 3160 nM. For the same molecule, the “mMC4R Activity @ 10 μM (relative activity, percent)” value in assay [5] is on record as 55%.

In the case of `CC(C)C[C@@H]1CNC(=N)N1C[C@@H]1CCCN1C[C@@H](Cc1ccccc1)N1C[C@@H]([C@@H](C)O)N(CC23CC4CC(CC(C4)C2)C3)C1=N` [TPI 2509-13, (R)-1-((S)-3-(adamantan-1-ylmethyl)-2-imino-1-((R)-1-((S)-2-(((R)-2-imino-5-isobutylimidazolidin-1-yl)methyl)pyrrolidin-1-yl)-3-phenylpropan-2-yl)imidazolidin-4-yl)ethanol], in assay [1] (setting [6]), the “mMC1R Activity @ 10 μM (class)” value is listed as “B (B: >51%)” and the “mMC1R Activity @ 10 μM (relative activity, percent)” value came out at 41%. For the same molecule, the Kb in assay [2] turned out to be 2510 nM. Besides, a half-maximal effect in assay [3] (EC50) was put at 360 ± 40 nM. The molecule further gave an EC50 in assay [4] of 810 ± 280 nM. Further, in assay [5], the “mMC4R Activity @ 10 μM (class)” value is “B (B: >51%)” and the “mMC4R Activity @ 10 μM (relative activity, percent)” value is listed as 58%.

With `CC(C)[C@@H]1CNC(=N)N1C[C@@H]1CCCN1C[C@@H](CC1CCCCC1)N1C[C@@H]([C@@H](C)O)N(CC2CCC(C(C)(C)C)CC2)C1=N` (stereo partly drawn) [TPI 2509-23, (R)-1-((S)-3-((4-(tert-butyl)cyclohexyl)methyl)-1-((R)-1-cyclohexyl-3-((S)-2-(((R)-2-imino-5-isopropylimidazolidin-1-yl)methyl)pyrrolidin-1-yl)propan-2-yl)-2-iminoimidazolidin-4-yl)ethanol], the EC50 in assay [1] is 300 ± 120 nM; in assay [3] it was 220 ± 30 nM; in assay [4] it was 150 ± 20 nM. In addition, in assay [2], the Kb was 1260 nM. The “mMC4R Activity @ 10 μM (class)” value in assay [5] is listed as “A (A: <50%)”. For the same molecule, the “mMC4R Activity @ 10 μM (relative activity, percent)” value in assay [5] is on record as 41%.

`CC(C)[C@@H]1CNC(=N)N1C[C@@H]1CCCN1C[C@@H](CC1CCCCC1)N1C[C@@H]([C@@H](C)O)N(CC23CC4CC(CC(C4)C2)C3)C1=N` [TPI 2509-22, (R)-1-((S)-3-(adamantan-1-ylmethyl)-1-((R)-1-cyclohexyl-3-((S)-2-(((R)-2-imino-5-isopropylimidazolidin-1-yl)methyl)pyrrolidin-1-yl)propan-2-yl)-2-iminoimidazolidin-4-yl)ethanol]: the figures for the EC50 in assay [1], in assay [3] and in assay [4] were 200 ± 80 nM, 370 ± 90 nM and 600 ± 210 nM, respectively. In assay [2], this molecule registered a Kb of 1580 nM. In assay [5], the “mMC4R Activity @ 10 μM (class)” value is recorded as “A (A: <50%)”. The “mMC4R Activity @ 10 μM (relative activity, percent)” value in assay [5] amounted to 49%.
